Measured values: US11389455B2, “Inhibitors of HIV-1 integrase multimerization” (Institute for Cancer Research, priority 2017, dated 2022)
Where two headings read alike, the source gives them in different places.

Tests used:
[1] = target: T1, HIV IN (Wild-type monomer) (Human immunodeficiency virus type 1 group M subtype B, UniProt P04585); assay type: biochemical, HIV-1; conditions: for I.I.(K Counts) CI/SI: ratio concerted/single end integration counts
T1 construct: 1 uM HIV IN (Wild-type monomer)

[2] = target: T2, Avian Sarcoma Virus integrase (UniProt P03354); assay: Specificity: single end and concerted integration in vitro, ASV integrase; assay type: biochemical; conditions: Table 6
T2 sequence (P03354 1281-1567): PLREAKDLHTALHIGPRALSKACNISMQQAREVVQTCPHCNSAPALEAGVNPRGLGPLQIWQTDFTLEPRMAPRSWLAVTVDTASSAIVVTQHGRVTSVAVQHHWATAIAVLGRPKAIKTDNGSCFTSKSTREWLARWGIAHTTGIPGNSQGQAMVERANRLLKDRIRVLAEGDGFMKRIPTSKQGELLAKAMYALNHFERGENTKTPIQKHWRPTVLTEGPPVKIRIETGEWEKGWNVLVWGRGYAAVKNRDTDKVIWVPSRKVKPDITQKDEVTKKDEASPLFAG

[3] = test system: Envelope pseudotyped virus particles infecting HeLa cells; assay: Inhibition of infectivity, single round GFP reporter virus, percent GFP positive cells; conditions: read-out: Infectivity EC50
[4] = target: Prototype Foamy Virus (PFV) integrase (Human spumaretrovirus, UniProt P14350); assay: Specificity: single end and concerted integration in vitro, PFV integrase; assay type: biochemical; conditions: Table 6
HeLa cells [5] = assay: Cell toxicity during the infection experiment (Tox/Infect), 24 hours exposure; conditions: only 24 hours of exposure
HeLa cells [6] = test system: HeLa cells
[7] = Table 1, cross validation assay at compound concentration of 10 uM
[8] = HeLa cells, compound exposure for 3 days, preliminary
[9] = Table 5, concerted integration, read-out: Concerted IC50
[10] = Table 5, single-end integration, read-out: Single End IC50
[11] = Table 6, read-out: HIV Concerted IC50
[12] = Table 6, read-out: HIV Single End IC50

`CCn1nc(-c2ccccn2)nc2c(=O)n(C)c(=O)nc1-2` [Formula I-2] was tested, and the “Relative % concerted integration” value [1, 7] was 6.33%.

`CCn1nc(-c2cc(Br)ccc2F)nc2c(=O)n(C)c(=O)nc1-2` [Formula I-4] was tested, and the “Relative % concerted integration” value [1, 7] was 0.26%.

With `CCn1nc(-c2cc(Br)cs2)nc2c(=O)n(C)c(=O)nc1-2` [Formula I-6] the “Relative % concerted integration” value [1, 7] was 1.72%.

With `Cn1nc(/C=C\c2ccccc2)nc2c(=O)n(C)c(=O)nc1-2` [Formula I-11] the “Relative % concerted integration” value [1, 7] was 1.76%.

For `O=C(CCCCCNc1ccc([N+](=O)[O-])c2nonc12)ON1C(=O)CCC1=O` [II-4], the IC50 ([2]; read-out: ASV Concerted IC50) was 53 µM, the IC50 ([2]; read-out: ASV Single End IC50) was 175 µM and the EC50 [3] was 5 µM. The IC50 ([4]; read-out: PFV Concerted IC50) was greater than 390 µM, the IC50 ([4]; read-out: PFV Single End IC50) was greater than 350 µM and the “Tox/Infect LD50” value (HeLa cells [5]) was greater than 20 µM. The “Toxicity LD50” value (HeLa cells [6]; [8]) was greater than 50 µM, the IC50 [1, 9] was 16 µM and the IC50 [1, 10] was 71 µM. It also gave an IC50 [1, 11] of 16 µM and an IC50 [1, 12] of 65 µM.

For `Cn1nc(-c2ccc(F)cc2)nc2c(=O)n(C)c(=O)nc1-2` [Formula I-8], the “Relative % concerted integration” value [1, 7] was 0.42%.

In the case of `Cn1nc(-c2ccc([N+](=O)[O-])cc2)nc2c(=O)n(C)c(=O)nc1-2` [Formula I-12], the “Relative % concerted integration” value [1, 7] is reported as 3.26%.

Molecule `Cn1ncnc2c(=O)n(C)c(=O)nc1-2` [Formula I-1] has an IC50 ([2]; read-out: ASV Concerted IC50) greater than 100 µM, an IC50 ([2]; read-out: ASV Single End IC50) greater than 100 µM and an EC50 [3] of 0.3 µM. The IC50 ([4]; read-out: PFV Concerted IC50) was greater than 1000 µM, the IC50 ([4]; read-out: PFV Single End IC50) was greater than 1000 µM and the “Tox/Infect LD50” value (HeLa cells [5]) was greater than 5 µM. For the same molecule, the “Toxicity LD50” value (HeLa cells [6]; [8]) was 0.43 µM, the “Relative % concerted integration” value [1, 7] was 3.84% and the IC50 ([1]; Table 1, read-out: IC50 (concerted integration)) was 0.2 µM. The activity at 0.001 µM ([1]; Table 4, Form F3 (concerted integration), 0.001 uM, read-out: Rel % Activity) was 99.6%, the activity at 0.005 µM ([1]; Table 4, Form F3 (concerted integration), 0.005 uM, read-out: Rel % Activity) was 83.8% and the activity at 0.01 µM ([1]; Table 4, Form F3 (concerted integration), 0.01 uM, read-out: Rel % Activity) was 92.4%. For the same molecule, the activity at 0.05 µM ([1]; Table 4, Form F3 (concerted integration), 0.05 uM, read-out: Rel % Activity) was 78.2%, the activity at 0.1 µM ([1]; Table 4, Form F3 (concerted integration), 0.1 uM, read-out: Rel % Activity) was 75.3% and the activity at 0.5 µM ([1]; Table 4, Form F3 (concerted integration), 0.5 uM, read-out: Rel % Activity) was 17.4%. For the same molecule, the activity at 1 µM ([1]; Table 4, Form F3 (concerted integration), 1 uM, read-out: Rel % Activity) was 6.42%, the activity at 5 µM ([1]; Table 4, Form F3 (concerted integration), 5 uM, read-out: Rel % Activity) was 0.705% and the activity at 10 µM ([1]; Table 4, Form F3 (concerted integration), 10 uM, read-out: Rel % Activity) was 0.419%. It also gave an activity at 50 µM ([1]; Table 4, Form F3 (concerted integration), 50 uM, read-out: Rel % Activity) of 0.366%, an activity at 100 µM ([1]; Table 4, Form F3 (concerted integration), 100 uM, read-out: Rel % Activity) of 0.453% and an activity at 500 µM ([1]; Table 4, Form F3 (concerted integration), 500 uM, read-out: Rel % Activity) of 0.433%. The activity at 1000 µM ([1]; Table 4, Form F3 (concerted integration), 1000 uM, read-out: Rel % Activity) was 1.34%, the IC50 [1, 9] was 0.2 µM and the IC50 [1, 10] was 1.25 µM. For the same molecule, the IC50 [1, 11] was 0.2 µM, the IC50 [1, 12] was 1.25 µM and the “I.I.(K Counts) CI/SI” value ([1]; 0.001 uM) was 1.336. For the same molecule, the “I.I.(K Counts) CI/SI” value ([1]; 0.005 uM) was 1.067, the “I.I.(K Counts) CI/SI” value ([1]; 0.01 uM) was 1.193 and the “I.I.(K Counts) CI/SI” value ([1]; 0.05 uM) was 1.007. The “I.I.(K Counts) CI/SI” value ([1]; 0.1 uM) was 0.978, the “I.I.(K Counts) CI/SI” value ([1]; 0.5 uM) was 0.331 and the “I.I.(K Counts) CI/SI” value ([1]; 1 uM) was 0.159. For the same molecule, the “I.I.(K Counts) CI/SI” value ([1]; 5 uM) was 0.034, the “I.I.(K Counts) CI/SI” value ([1]; 10 uM) was 0.022 and the “I.I.(K Counts) CI/SI” value ([1]; 50 uM) was 0.020. For the same molecule, the “I.I.(K Counts) CI/SI” value ([1]; 100 uM) was 0.026, the “I.I.(K Counts) CI/SI” value ([1]; 500 uM) was 0.033 and the “I.I.(K Counts) CI/SI” value ([1]; 1000 uM) was 0.107. It also gave an activity at 0.005 µM ([1]; read-out: Rel % Activity) of 106%.

With `O=C(O)CCCCCNc1ccc([N+](=O)[O-])c2nonc12` [II-2] the “Toxicity LD50” value (HeLa cells [6]; [8]) was greater than 50 µM, the IC50 ([1]; Concerted IC50) was 500 µM and the IC50 ([1]; Single End IC50) was greater than 1000 µM.

`Cc1nnc(C(=O)NC(C)(C)c2nc(C(=O)NCc3ccc(F)cc3)c(O)c(=O)n2C)o1` [RAL, Raltegravir, reference compound] showed an IC50 ([2]; read-out: ASV Concerted IC50) of 0.6 µM, an IC50 ([2]; read-out: ASV Single End IC50) of 22 µM and an EC50 [3] of 0.05 µM. For the same molecule, the IC50 ([4]; read-out: PFV Concerted IC50) was 1 µM, the IC50 ([4]; read-out: PFV Single End IC50) was less than 10 µM and the “Tox/Infect LD50” value (HeLa cells [5]) was greater than 10 µM. The “Toxicity LD50” value (HeLa cells [6]; [8]) was greater than 20 µM.

With `CCn1nc(-c2ccc(C(F)(F)F)cc2)nc2c(=O)n(C)c(=O)nc1-2` [Formula I-5] the “Relative % concerted integration” value [1, 7] was 0.72%.

In the case of `CCCc1nc2c(=O)n(C)c(=O)nc-2n(C)n1` [Formula I-7], the “Relative % concerted integration” value [1, 7] is reported as 0.07%.

For `Cn1nc(-c2ccc(C(F)(F)F)cc2)nc2c(=O)n(C)c(=O)nc1-2` [Formula I-10], the “Relative % concerted integration” value [1, 7] was 1.56%.

With `CCn1nc(-c2cccs2)nc2c(=O)n(C)c(=O)nc1-2` [Formula I-3] the “Relative % concerted integration” value [1, 7] was 2.07%.

`CCc1ccc(-c2nc3c(=O)n(C)c(=O)nc-3n(CC)n2)cc1` [Formula I-13] was tested, and the “Toxicity LD50” value (HeLa cells [6]; human, 3 days) was 3.2 µM, the “Relative % concerted integration” value [1] was 7.07% (IC50 of 0.27 μM) and the IC50 ([1]; Concerted IC50) was 0.27 µM. It also gave an IC50 ([1]; IC50 (concerted integration)) of 0.27 µM and an IC50 ([1]; Single End IC50) of 1.4 µM.

`Cn1nc(-c2ccccc2)nc2c(=O)n(C)c(=O)nc1-2` [Formula I-9] was tested, and the “Relative % concerted integration” value [1, 7] was 2.73%.

For `Nc1ccc(N2CCCCC2)c2nonc12` [II-3], the “Toxicity LD50” value (HeLa cells [6]; human, 3 days) was 25 µM, the IC50 ([1]; Concerted IC50) was 15 µM and the IC50 ([1]; Single End IC50) was greater than 1000 µM.
